# Assay results as given in US20050288347A1, “Certain triazole-based compounds, compositions, and uses thereof” (priority 2004, published 2005).
# Entries after “also recorded” stand apart in the source; their conditions may differ.
# Test system: protein kinase
# Assay: HTS ATP-utilizing enzyme assay, off-chip mobility-shift format (Caliper HTS 250)
# Format: biochemical, human
# Details: not given
# From the text: The following procedures describe the reagent and plate preparation for a HTS of an ATP-utilizing enzyme, such as a protein kinase, run in an off-chip mobility-shift assay format. The following provides an HTS protocol for running a protein kinase HTS screen on a Caliper HTS 250 microfluidics system. The following parameters are dependent on the protein kinase used and can be determined by one skilled in the art as part of a typical assay development process. For example, the peptide substrate used can be identified from the current literature, by screening a peptide library of potential protein kinase substrates, or by other applicable means accepted in the field.
# The following table provides typical screen assay parameters appropriate for a Caliper HTS 250 microfluidics system.
# The reagents and buffers listed in the following table are generally applicable for developing and running an HTS screen on a human protein kinase using the Caliper HTS 250 system.
# The following reagents were prepared using the previously described buffers.
# A 2× Master Buffer solution was prepared by combining 200 mL of 1 M HEPES, pH 7.5, 2 mL of 10% Triton X-100, 20 mL of 10% BSA, and 778 mL of H2O.
# Assays to determine the kinase inhibitory activity of chemical entities of the present disclosure were performed using a Caliper HTS 250 microfluidics device, Greiner U-bottom assay plates, a Multidrop for transfer of reagents, and Biomek FX (AMNCBM03) software. Initially, 2.4 μL of a 1 mM solution of a test compound in 100% DMSO was added to a well of the Greiner U-bottom plate. A single Greiner U-bottom plate having 24×16 wells could include multiple test compounds. […] Using the Biomek FX, 10 μL of 0.5 M EDTA was added by the span-8 to wells, indicated as 100% Control and 2.4 μL of 100% DMSO was added by the span-8 to wells, indicated as 0% Control. […] The total reaction volume in each well was 25 μL, and the concentration of the test compound was 10 μM. The assay plate was incubated for 2.5 hrs at 20° C. to 22° C. […] The inhibition of the ATP-utilizing enzyme, such as a particular protein kinase, was determined by measuring the ratio of the peptide substrate to phosphorylated product for each well of the assay plate using the Caliper HTS 250 system.
# The use of three-sigma statistical limits represents a conservative method for declaring potential hits among targets. The three-sigma activity, as well as the mean population activity, can be different for each target enzyme.
Structure (SMILES),protein kinase against which the compound exhibits inhibitory activity (Table 3),Kinase
COc1ccccc1-n1c(SCC2COc3ccccc3O2)nnc1-c1cccc(Cl)c1 (stereo not drawn),MAPKAPK-3,–
COc1ccccc1-n1c(SCCCCc2ccccc2)nnc1-c1cccc(N(C)C)c1,MAPKAPK-3,–
COc1ccccc1-n1c(SCCCCc2ccccc2)nnc1-c1cc(C)n[nH]1,MAPKAPK-3,–
COc1ccccc1-n1c(SCCCCc2ccccc2)nnc1-c1ccc(N)nc1,MAPKAPK-3,–
COc1ccccc1-n1c(SCCC(=O)Nc2cc(NC(=O)c3ccco3)ccc2C)nnc1-c1ccccc1,MAPKAPK-3,–
Cn1c(SCC(=O)NCc2ccc3c(c2)OCO3)nnc1-c1cc2ccccc2cc1O,–,CSK

# Same assay, conditions: kinase(s) for which the compound exhibits protein kinase inhibitory activity; test compound 10 μM; active = greater than three-sigma from the mean activity of inactive compounds
row,Structure (SMILES),Kinase
1,CCc1nnc(NC(=O)CSc2nnc(-c3ccc(O)cc3)n2-c2cccc(Cl)c2)s1,GSK3-β; also recorded: GSK3-α
2,NC(=O)CSc1nnc(-c2cc3ccccc3cc2O)n1Cc1ccco1,SRC
3,O=C(CSc1nnc(-c2cccnc2)n1Cc1ccco1)Nc1nccs1,GSK3-α; also recorded: GSK3-β; also recorded: CDK2-cyclinE
4,CC1CCCCC1NC(=O)CSc1nnc(-c2ccccc2)n1Cc1ccccc1 (stereo not drawn),AKT1
5,CCn1c(SCC(=O)N2CCN(c3ccc(OC)cc3)CC2)nnc1-c1ccc(O)cc1,SYK
6,COc1cc(-c2nnc(SCC(=O)Nc3cc([N+](=O)[O-])ccc3C)n2C)cc(OC)c1OC,MAPKAPK-2
7,COc1ccc(N2CCN(C(=O)CSc3nnc(-c4cc5ccccc5cc4O)n3C)CC2)cc1,DAPK1
8,COc1ccc(-n2c(SC(C)C(=O)Nc3ccc(C)cc3)nnc2-c2ccc(O)cc2)cc1 (stereo not drawn),GSK3-α
9,Cn1c(Cn2nnc3ccccc32)nnc1SCC(=O)Nc1cccc(O)c1,GSK3-α
10,COc1ccccc1NC(=O)CSc1nnc(CNc2cccc(Cl)c2)n1-c1ccccc1,MSK1 and SGK1
11,CCn1c(CNc2ccc(Cl)cc2)nnc1SCC(=O)Nc1ccccc1,c-TAK1
12,CCOc1ccc(NCc2nnc(SCC(=O)Nc3cc(C)on3)n2-c2ccccc2OC)cc1,PDGFRR-α and FYN
13,CCOc1ccc(NCc2nnc(SC(C)C(=O)N(c3ccccc3)c3ccccc3)n2-c2ccc(OC)cc2)cc1 (stereo not drawn),FYN
14,Cn1c(CNc2ccc(F)cc2)nnc1SCC(=O)Nc1ccc([N+](=O)[O-])cc1,CHEK2
15,Cc1ccc(-n2c(CNc3ccc(F)cc3)nnc2SCC(=O)Nc2ccccc2C(F)(F)F)cc1,AKT1
16,COc1ccc(NCc2nnc(SCC(=O)N(c3ccccc3)c3ccccc3)n2-c2ccccc2)cc1,CHEK2; also recorded: PDGFRR-α; also recorded: FYN α
17,CCn1c(CSc2nc(C)cc(C)n2)nnc1SCC(=O)Nc1nccs1,GSK3-α
18,CCn1c(CNc2ccc(C)cc2)nnc1SCC(=O)Nc1ccccc1OC,AURORA-A
19,CCn1c(CNc2ccc(C)cc2)nnc1SCC(=O)Nc1cccc(Cl)c1,CHEK2
20,COc1cccc(NC(=O)CSc2nnc(CNc3ccc(C)cc3)n2C)c1,CHEK2
21,CCOc1ccc(NCc2nnc(S)n2-c2cccc(Cl)c2)cc1,PDGFRR-α; also recorded: FLT-3
22,CCOc1ccc(NCc2nnc(S)n2-c2ccc(OC)cc2)cc1,FLT-3; also recorded: PDGFRR-α; also recorded: AURORA-A

row,Structure (SMILES),Kinase
1,COc1cc(NC(=O)c2ccco2)c(OC)cc1NC(=O)CSc1nnc(-c2cccs2)n1C,PDGFRR-α
2,CCOc1ccc(NCc2nnc(SCC(=O)Nc3cccc(C(C)=O)c3)n2-c2ccccc2)cc1,FYN and PDGFRR-α and FLT-3
3,COCCn1c(SCC(=O)Nc2cccc(O)c2)nnc1-c1ccncc1,AKT1
4,COc1ccc(NCc2nnc(SCC(=O)Nc3cccc(O)c3)n2-c2ccccc2OC)cc1,CHEK2; also recorded: PDGFRR-α; also recorded: AURORA-A
5,COc1cccc(NC(=O)CSc2nnc(COc3cccc(C)c3)n2C)c1,GSK3-α; also recorded: CDK2-cyclinE
6,CCC(=O)Nc1ccc(NC(=O)CSc2nnc(-c3ccc(O)cc3)n2CC)cc1C,GSK3-α
7,CC(=O)c1ccc(NC(=O)CSc2nnc(COc3ccccc3)n2-c2ccc(C)cc2)cc1,CHEK2
8,CCOc1ccc2nc(NC(=O)CSc3nnc(-c4ccncc4)n3CCCOC)sc2c1,GSK3-β; also recorded: PDGFRR-α; also recorded: GSK3-α
9,COc1ccc(-c2nnc(SCC(=O)Nc3ccc4c(c3)OCO4)n2C)cc1,AKT1
10,CCn1c(CNc2ccc(C)cc2C)nnc1SCC(=O)Nc1ccccc1-c1ccccc1,GSK3-α
11,Cc1cccc(C)c1NCc1nnc(SCC(=O)Nc2ccccc2-c2ccccc2)n1C,LCK
12,O=C(CSc1nnc(Cn2nnc(-c3ccccc3)n2)n1-c1ccccc1)Nc1ccccc1,GSK3-α
13,O=C(CSc1nnc(COc2cccc3cccnc23)n1-c1ccccc1)Nc1ccccc1,SGK1 and CDK1
14,C=CCn1c(SCC(=O)Nc2sc3c(c2C(=O)OCC)CCC3)nnc1-c1ccncc1,CDK1 and AURORA-A
15,CCOC(=O)CN(C(=O)CSc1nnc(-c2ccc([N+](=O)[O-])cc2)n1C)c1ccccc1,PDGFRR-α and FYN
16,CCOC(=O)CN(C(=O)CSc1nnc(CNc2ccc(F)cc2)n1-c1ccccc1)c1ccccc1,LCK
17,CCOC(=O)c1c(NC(=O)CSc2nnc(CNc3ccc(OC)cc3)n2C)sc(C)c1C,PDGFRR-α; also recorded: FLT-3; also recorded: AURORA-A
18,CCOC(=O)c1ccc(NC(=O)CSc2nnc(C)n2CCOC)cc1,AKT1
19,CCOC(=O)c1ccc(NC(=O)CSc2nnc(CNc3ccc(C)cc3)n2CC)cc1,CHEK2
20,COC(=O)c1ccccc1NC(=O)CSc1nnc(CNc2cccc(Cl)c2)n1C,AURORA-A
21,COC(=O)c1sc(NC(=O)CSc2nnc(-c3ccco3)n2C)nc1C,GSK3-β; also recorded: GSK3-α

# The remaining lines, values ahead:
row,Kinase,Structure (SMILES)
1,GSK3-β and GSK3-α and SRC,O=C(CSc1nnc(-c2ccc(O)cc2)n1Cc1ccco1)N1CCc2ccccc2C1
2,c-TAK1,Cc1nnc(SCC(=O)N2CCCc3ccccc32)n1-c1ccccc1
3,FYN,COc1ccc(NCc2nnc(SCC(=O)Nc3ccccc3C(=O)O)n2-c2ccc(OC)cc2)cc1
4,GSK3-β; also recorded: GSK3-α,NC(=O)CSc1nnc(-c2ccc(O)cc2)n1-c1cccc(Cl)c1
5,GSK3-β and AKT3 and SRC,O=C(CSc1nnc(-c2ccncc2)n1Cc1ccco1)Nc1cccc(I)c1
6,CDK2-cyclinE,Cc1cccc(-c2nnc(SCC(=O)Nc3cccc(C(F)(F)F)c3)n2C)c1
7,AURORA-A,COc1ccccc1-c1nnc(SCC(=O)Nc2ccccc2)n1C
8,GSK3-α; also recorded: GSK3-β,CCn1c(SCC(=O)Nc2nccs2)nnc1C1COc2ccccc2O1 (stereo not drawn)
9,PDGFRR-α,CCn1c(CNc2ccccc2Cl)nnc1SC(C)C(=O)Nc1ccc([N+](=O)[O-])cc1 (stereo not drawn)
10,CDK2-cyclinA and CDK1 and AURORA-A,NC(=O)CSc1nnc(CNc2cccc(Cl)c2)n1CCc1ccccc1
11,CDK2-cyclinE,O=C(CSc1nnc(CNc2cccc(Cl)c2)n1CCc1ccccc1)NC1CCCCC1
12,PDGFRR-α,CCc1ccccc1NC(=O)CSc1nnc(COc2ccc(Cl)cc2)n1C
13,PDGFRR-α and FYN,COc1ccc(NCc2nnc(SCC(N)=O)n2C)cc1
14,PDGFRR-α,COc1ccc(NCc2nnc(SCC(=O)N3c4ccccc4Sc4ccccc43)n2-c2ccccc2)cc1
15,PDGFRR-α and FYN,COc1ccc(NCc2nnc(SCC(=O)Nc3ncc(C)s3)n2-c2ccccc2)cc1
16,CDK1,Cc1cc(C)nc(SCc2nnc(SCC(=O)Nc3cccc(C(F)(F)F)c3)n2C)n1
17,CDK2-cyclinE,Cc1ccc(-n2c(Cc3ccccc3)nnc2SCC(=O)N2c3ccccc3Sc3ccccc32)cc1
18,AURORA-A; also recorded: GSK3-α,COc1ccc(-n2c(S)nnc2CNc2ccc(Cl)cc2)cc1
19,PDGFRR-α,CCc1ccccc1NC(=O)CSc1nnc(COc2ccc(C)cc2)n1C
20,PDGFRR-α and FYN and AURORA-A,COc1ccc(NCc2nnc(SCC(=O)Nc3cccc(Cl)c3)n2-c2ccc(C)cc2)cc1
21,PDGFRR-α and AURORA-A and FYN,COc1ccc(NCc2nnc(SCC(=O)Nc3cccc(Cl)c3)n2C)cc1
22,DAPK1,CCn1c(SCC(=O)Nc2sc(C)c(C)c2C#N)nnc1-c1ccc(S(=O)(=O)N2CCOCC2)cc1
23,GSK3-α and AKT1,CCOc1ccc2nc(NC(=O)CSc3nnc(-c4ccncc4)n3Cc3ccco3)sc2c1
24,PDGFRR-α and FYN and CHEK2,COc1ccc(NCc2nnc(SCC(=O)Nc3cccc(-c4ccccc4)c3)n2C)cc1
25,GSK3-α,CCOC(=O)CN(C(=O)CSc1nnc(-c2ccccc2)n1-c1ccccc1OC)c1cccc([N+](=O)[O-])c1
26,PDGFRR-α,CCOC(=O)CN(C(=O)CSc1nnc(-c2ccncc2)n1-c1ccccc1)c1ccccc1
